Results reported in patent US20180327396A1, “NOVEL PYRIDINE DERIVATIVES” (Hoffmann-La Roche Inc., priority 2014, published 2018).

molecular target: T1, human CB2 receptors (Homo sapiens, UniProt P34972); experiment: cAMP assay; format: cell-based; conditions: not given
T1 construct: expressed in transfected cells; host or cells: CHO cells
Description: CHO cells expressing human CB1 or CB2 receptors are seeded 17-24 hours prior to the experiment 50.000 cells per well in a black 96 well plate with flat clear bottom (Corning Costar #3904) in DMEM (Invitrogen No. 31331), 1× HT supplement, with 10% fetal calf serum and incubated at 5% CO2 and 37° C. in a humidified incubator. The growth medium was exchanged with Krebs Ringer Bicarbonate buffer with 1 mM IBMX and incubated at 30° C. for 30 min. Compounds were added to a final assay volume of 100 μl and incubated for 30 min at 30° C. Using the cAMP-Nano-TRF detection kit the assay (Roche Diagnostics) was stopped by the addition of 50 μl lysis reagent (Tris, NaCl, 1.5% Triton X100, 2.5% NP40, 10% NaN3) and 50 μl detection solutions (20 μM mAb Alexa700-cAMP 1:1, and 48 μM Ruthenium-2-AHA-cAMP) and shaken for 2 h at room temperature. The time-resolved energy transfer is measured by a TRF reader (Evotec Technologies GmbH), equipped with a ND:YAG laser as excitation source. The plate is measured twice with the excitation at 355 nm and at the emission with a delay of 100 ns and a gate of 100 ns, total exposure time 10 s at 730 (bandwidth 30 nm) or 645 nm (bandwidth 75 nm), respectively. The FRET signal is calculated as follows: FRET=T730−Alexa730−P(T645−B645) with P=Ru730−B730/Ru645−B645, where T730 is the test well measured at […], T645 is the test well measured at 645 nm, B730 and B645 are the buffer controls at 730 nm and 645 nm, respectively. cAMP content is determined from the function of a standard curve spanning from 10 μM to 0.13 nM cAMP.
EC50 values were determined using Activity Base analysis (ID Business Solution, Limited). The EC50 values for a wide range of cannabinoid agonists generated from this assay for reference compounds were in agreement with the values published in the scientific literature.

T1 sequence (P34972 whole entry): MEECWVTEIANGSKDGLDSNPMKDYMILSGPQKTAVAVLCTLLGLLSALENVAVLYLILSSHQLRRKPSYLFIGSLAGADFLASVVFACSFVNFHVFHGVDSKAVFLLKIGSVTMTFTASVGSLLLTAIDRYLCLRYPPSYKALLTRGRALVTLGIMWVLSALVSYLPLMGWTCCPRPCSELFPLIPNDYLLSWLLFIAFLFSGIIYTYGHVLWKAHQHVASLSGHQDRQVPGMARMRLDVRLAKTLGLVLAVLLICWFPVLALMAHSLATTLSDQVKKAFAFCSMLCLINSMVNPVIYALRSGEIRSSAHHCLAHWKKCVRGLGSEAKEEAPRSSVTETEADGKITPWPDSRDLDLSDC

Compound	EC50
CC(C)(Cc1nnc(C2CC2)o1)NC(=O)c1cccc(-c2ccc(Cl)cc2)n1 [Example 1, 6-(4-Chlorophenyl)-N-[1-(5-cyclopropyl-1,3,4-oxadiazol-2-yl)-2-methylpropan-2-yl]pyridine-2-carboxamide]	0.497 µM
COCCOc1cccc(C(=O)NC(C)(C)Cc2nc(-c3ccccc3)no2)n1 [Example 11, 6-(2-Methoxyethoxy)-N-[2-methyl-1-(3-phenyl-1,2,4-oxadiazol-5-yl)propan-2-yl]pyridine-2-carboxamide]	0.573 µM
CC(C)(Cc1nc(C2CC2)no1)NC(=O)c1cccc(-c2cccc(Cl)c2)n1 [Example 7, 6-(3-Chlorophenyl)-N-[1-(3-cyclopropyl-1,2,4-oxadiazol-5-yl)-2-methylpropan-2-yl]pyridine-2-carboxamide]	0.244 µM
COCCOCC(C)(C)c1cc(NC(=O)c2ccc(N3CC(F)(F)C3)c(OCC3CC3)n2)on1 [Example 16, 6-(Cyclopropylmethoxy)-5-(3,3-difluoroazetidin-1-yl)-N-[3-[1-(2-methoxyethoxy)-2-methylpropan-2-yl]-1,2-oxazol-5-yl]pyridine-2-carboxamide]	0.218 µM
Cc1nnc(C(C)(C)NC(=O)c2cccc(-c3ccc(Cl)cc3Cl)n2)o1 [Example 15, 6-(2,4-Dichlorophenyl)-N-[2-(5-methyl-1,3,4-oxadiazol-2-yl)propan-2-yl]pyridine-2-carboxamide]	0.107 µM
CC(C)(C)OC(=O)N1CCOC(CNC(=O)c2ccc(C3CC3)c(Cc3ccc(F)cc3)n2)C1 (stereo not drawn) [Example 22, tert-Butyl 2-[[[5-cyclopropyl-6-[(4-fluorophenyl)methyl]pyridine-2-carbonyl]amino]methyl]morpholine-4-carboxylate]	0.101 µM
CC(C)(Cc1nc(-c2ccccc2)no1)NC(=O)c1cccc(-c2ccc(Cl)cc2)n1 [Example 4, 6-(4-Chlorophenyl)-N-[2-methyl-1-(3-phenyl-1,2,4-oxadiazol-5-yl)propan-2-yl]pyridine-2-carboxamide]	0.339 µM
CC(C)(Cc1nnc(-c2ccccc2)o1)NC(=O)c1cccc(OCC(F)(F)F)n1 [Example 3, N-[2-Methyl-1-(5-phenyl-1,3,4-oxadiazol-2-yl)propan-2-yl]-6-(2,2,2-trifluoroethoxy)pyridine-2-carboxamide]	0.132 µM
CC(C)(CN=[N+]=[N-])c1cc(NC(=O)c2cnc(C3CC3)c(OCC3CC3)n2)on1 [Example 26, N-[3-(1-Azido-2-methylpropan-2-yl)-1,2-oxazol-5-yl]-5-cyclopropyl-6-(cyclopropylmethoxy)pyrazine-2-carboxamide]	0.0124 µM
CC(C)(CO)c1cc(NC(=O)c2ccc(C3CC3)c(OCC3CC3)n2)on1 [Example 19, 5-Cyclopropyl-6-(cyclopropylmethoxy)-N-[3-(1-hydroxy-2-methylpropan-2-yl)-1,2-oxazol-5-yl]pyridine-2-carboxamide]	0.139 µM
CC(C)(CO)n1cc(NC(=O)c2ccc(C3CC3)c(OCC3CC3)n2)cn1 [Example 17, 5-Cyclopropyl-6-(cyclopropylmethoxy)-N-[1-(1-hydroxy-2-methylpropan-2-yl)pyrazol-4-yl]pyridine-2-carboxamide]	0.224 µM
CC(C)(Cc1nnc(-c2ccccc2)o1)NC(=O)c1ccc(C2CC2)c(-c2ccc(Cl)cc2)n1 [Example 10, 6-(4-Chlorophenyl)-5-cyclopropyl-N-[2-methyl-1-(5-phenyl-1,3,4-oxadiazol-2-yl)propan-2-yl]pyridine-2-carboxamide]	0.265 µM
CC(C)(Cc1nnc(-c2ccccc2)o1)NC(=O)c1cccc(-c2cccc(Cl)c2)n1 [Example 6, 6-(3-Chlorophenyl)-N-[2-methyl-1-(5-phenyl-1,3,4-oxadiazol-2-yl)propan-2-yl]pyridine-2-carboxamide]	0.182 µM
CC(C)(Cc1nnc(C2CCC2)o1)NC(=O)c1cccc(-c2cccc(Cl)c2)n1 [Example 13, 6-(3-Chlorophenyl)-N-[1-(5-cyclobutyl-1,3,4-oxadiazol-2-yl)-2-methylpropan-2-yl]pyridine-2-carboxamide]	0.294 µM
CC(C)(Cc1nnc(-c2ccccc2)o1)NC(=O)c1ccc(Nc2ccc(Cl)cc2Cl)c(Cl)n1 [Example 9, 6-Chloro-5-(2,4-dichloroanilino)-N-[2-methyl-1-(5-phenyl-1,3,4-oxadiazol-2-yl)propan-2-yl]pyridine-2-carboxamide]	0.0367 µM
CC(C)(COC1CCCCO1)c1cc(NC(=O)c2cnc(C3CC3)c(OCC3CC3)n2)on1 (stereo not drawn) [Example 24, 5-Cyclopropyl-6-(cyclopropylmethoxy)-N-[3-[2-methyl-1-(oxan-2-yloxy)propan-2-yl]-1,2-oxazol-5-yl]pyrazine-2-carboxamide]	0.0752 µM
CCOCCOCC(C)(C)c1cc(NC(=O)c2ccc(C3CC3)c(OCC3CC3)n2)on1 [Example 20, 5-Cyclopropyl-6-(cyclopropylmethoxy)-N-[3-[1-(2-ethoxyethoxy)-2-methylpropan-2-yl]-1,2-oxazol-5-yl]pyridine-2-carboxamide]	0.0225 µM
CC(C)(CO)c1cc(NC(=O)c2cnc(C3CC3)c(OCC3CC3)n2)on1 [Example 25, 5-Cyclopropyl-6-(cyclopropylmethoxy)-N-[3-(1-hydroxy-2-methylpropan-2-yl)-1,2-oxazol-5-yl]pyrazine-2-carboxamide]	0.0516 µM
NC(=O)[C@H]1CSCCN1C(=O)c1cnc(C2CC2)c(OCC2CC2)n1 [Example 23, (+)-4-[5-Cyclopropyl-6-(cyclopropylmethoxy)pyrazine-2-carbonyl]thiomorpholine-3-carboxamide]	0.589 µM
CC(C)(NC(=O)c1cccc(-c2ccc(Cl)cc2Cl)n1)c1nnc(-c2ccccc2)o1 [Example 14, 6-(2,4-Dichlorophenyl)-N-[2-(5-phenyl-1,3,4-oxadiazol-2-yl)propan-2-yl]pyridine-2-carboxamide]	0.227 µM
COCCOCC(C)(C)c1cc(NC(=O)c2ccc(C3CC3)c(OCC3CC3)n2)on1 [Example 18, 5-Cyclopropyl-6-(cyclopropylmethoxy)-N-[3-[1-(2-methoxyethoxy)-2-methylpropan-2-yl]-1,2-oxazol-5-yl]pyridine-2-carboxamide]	0.0352 µM
O=C(NC12CC3CC(CC(O)(C3)C1)C2)c1ccc(N2CC(F)(F)C2)c(OCC2CC2)n1 [Example 21, 6-(Cyclopropylmethoxy)-5-(3,3-difluoroazetidin-1-yl)-N-(3-hydroxy-1-adamantyl)pyridine-2-carboxamide]	0.0816 µM

same assay, conditions: CHO cells expressing human CB2 receptors; read-out: cAMP assay human CB2 EC50

Compound	EC50
CC(C)(Cc1nc(-c2ccccc2)no1)NC(=O)c1cccc(-c2cccc(Cl)c2)n1 [Example 8, 6-(3-Chlorophenyl)-N-[2-methyl-1-(3-phenyl-1,2,4-oxadiazol-5-yl)propan-2-yl]pyridine-2-carboxamide]	0.194 µM
CC(C)(Cc1nnc(-c2ccc(F)cc2)o1)NC(=O)c1ccc(C2CCCC2)c(OCC2CC2)n1 [Example 28, 5-Cyclopentyl-6-(cyclopropylmethoxy)-N-[1-[5-(4-fluorophenyl)-1,3,4-oxadiazol-2-yl]-2-methylpropan-2-yl]pyridine-2-carboxamide]	2.76 µM
CC(C)(Cc1nnc(-c2ccc(F)cc2)o1)NC(=O)c1ccc(N2CC(F)(F)C2)c(OCC2CC2)n1 [Example 27, 6-(Cyclopropylmethoxy)-5-(3,3-difluoroazetidin-1-yl)-N-[1-[5-(4-fluorophenyl)-1,3,4-oxadiazol-2-yl]-2-methylpropan-2-yl]pyridine-2-carboxamide]	2.89 µM
CCOCCOCC(C)(C)c1cc(NC(=O)c2ccc(C3CCCC3)c(OCC3CC3)n2)on1 [Example 30, 5-Cyclopentyl-6-(cyclopropylmethoxy)-N-[3-[1-(2-ethoxyethoxy)-2-methylpropan-2-yl]-1,2-oxazol-5-yl]pyridine-2-carboxamide]	0.176 µM
COCCOCC(C)(C)c1cc(NC(=O)c2ccc(C3CCCC3)c(OCC3CC3)n2)on1 [Example 29, 5-Cyclopentyl-6-(cyclopropylmethoxy)-N-[3-[1-(2-methoxyethoxy)-2-methylpropan-2-yl]-1,2-oxazol-5-yl]pyridine-2-carboxamide]	0.175 µM
CC(C)(Cc1nc(-c2ccccc2)no1)NC(=O)c1cccc(N2CCCC2=O)n1 [Example 12, N-[2-Methyl-1-(3-phenyl-1,2,4-oxadiazol-5-yl)propan-2-yl]-6-(2-oxopyrrolidin-1-yl)pyridine-2-carboxamide]	0.662 µM
CC(C)(Cc1nnc(-c2ccccc2)o1)NC(=O)c1cccc(-c2ccc(Cl)cc2)n1 [Example 2, 6-(4-Chlorophenyl)-N-[2-methyl-1-(5-phenyl-1,3,4-oxadiazol-2-yl)propan-2-yl]pyridine-2-carboxamide]	0.165 µM
CC(C)(Cc1nc(-c2ccccc2)no1)NC(=O)c1cccc(OCC(F)(F)F)n1 [Example 5, N-[2-Methyl-1-(3-phenyl-1,2,4-oxadiazol-5-yl)propan-2-yl]-6-(2,2,2-trifluoroethoxy)pyridine-2-carboxamide]	0.554 µM
